Reference: PubChem BioAssay (NCI)
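96-well plates; 48 h exposure; 5 concentrations. Endpoints by linear interpolation between flanking doses. Not reached: highest tested concentration assigned. TGI denotes the concentration required for complete inhibition of growth.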

How the values were obtained:
Assay in all cases: NCI tumour cell line growth inhibition, 48 h
[1] = test system: IGROV1 ovarian
[2] = test system: SK-OV-3 ovarian
[3] = test system: A549 NSCLC
[4] = test system: HOP-62 NSCLC
[5] = test system: TK-10 renal
[6] = test system: OVCAR-4 ovarian
[7] = test system: OVCAR-5 ovarian
[8] = test system: UACC-257 melanoma
[9] = test system: HS 578T breast
[10] = test system: MDA-MB-231 breast
[11] = test system: RXF 393 renal
[12] = test system: NCI-H522 lung
[13] = test system: SW-620 colon
[14] = test system: HCT-15 colon
[15] = test system: MALME-3M melanoma
[16] = test system: SNB-19 CNS
[17] = test system: SK-MEL-2 melanoma
[18] = test system: EKVX NSCLC
[19] = test system: U251 CNS
[20] = test system: UO-31 renal
[21] = test system: CAKI-1 renal
[22] = test system: LOX IMVI melanoma
[23] = test system: NCI-H226 lung
[24] = test system: MOLT-4 leukemia
[25] = test system: HL-60(TB) leukemia
[26] = test system: MDA-N
[27] = test system: SF-268 CNS
[28] = test system: A498 renal
[29] = test system: SF-539 CNS
[30] = test system: PC-3 prostate
[31] = test system: HCT-116 colon
[32] = test system: BT-549 breast
[33] = test system: NCI-H23 lung
[34] = test system: SK-MEL-5 melanoma
[35] = test system: NCI/ADR-RES ovarian
[36] = test system: DU-145 prostate
[37] = test system: SNB-75 CNS
[38] = test system: 786-0 renal
[39] = test system: OVCAR-8 ovarian
[40] = test system: ACHN renal
[41] = test system: SF-295 CNS
[42] = test system: SN12C renal
[43] = test system: CCRF-CEM leukemia
[44] = test system: MDA-MB-435
[45] = test system: SK-MEL-28 melanoma
[46] = test system: KM12 colon
[47] = test system: UACC-62 melanoma
[48] = test system: COLO 205 colon
[49] = test system: T-47D breast
[50] = test system: HT29 colon
[51] = test system: M14 melanoma
[52] = test system: HCC-2998 colon
[53] = test system: MCF7 breast
[54] = test system: SR leukemia
[55] = test system: HOP-92 NSCLC
[56] = test system: NCI-H460 lung
[57] = test system: OVCAR-3 ovarian
[58] = test system: K-562 leukemia

Measured: TGI

COC(=O)CN1C(=O)C2(C(=O)OC)OC1(c1ccc([N+](=O)[O-])cc1)C1C(=O)N(c3ccccc3)C(=O)C12 (stereo unspecified)
not listed: [52] | [53] | [54] | [55] | [56] | [57] | [58]
> 100 µM: all other assays above

CS(=O)(=O)OCCCSCCSCCCOS(C)(=O)=O
not listed: [9] | [11] | [15] | [17] | [21] | [23] | [28] | [40]
> 100 µM: all other assays above
